PubChem BioAssay AID2060885 (Molecular Pharmacology Branch, DTP, NCI, 2025)

System: NCI-H23 complex spheroids with HUVEC/MSC, viability
Assay: Anticancer human tumor NCI-H23 cell line growth inhibition [RAS];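 also: spheroids exposed to compound for 7 days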;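 as to viability, T/C: 100% = DMSO vehicle control viability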
Conditions: for IC50: curve of first compound; for viability, T/C: stronger effect = lower value
Summary of the method: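 Agents were tested in combination matrices in half-log decrements from a top concentration at or near clinical Cmax (10 microM if undetermined). Targets were multi-cell spheroids of tumour lines plus HUVEC and MSC stromal cells.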

[1] = second compound 0.000949 µM, first compound 0.00316 µM
[2] = second compound 0.000949 µM, first compound 0.01 µM
[3] = second compound 0.000949 µM, first compound 0.0316 µM
[4] = second compound 0.000949 µM, first compound 0.1 µM
[5] = second compound 0.000949 µM, first compound 0.316 µM
[6] = second compound 0.000949 µM, first compound 1 µM
[7] = second compound 0.003 µM, first compound 0.00316 µM
[8] = second compound 0.003 µM, first compound 0.01 µM
[9] = second compound 0.003 µM, first compound 0.0316 µM
[10] = second compound 0.003 µM, first compound 0.1 µM
[11] = second compound 0.003 µM, first compound 0.316 µM
[12] = second compound 0.003 µM, first compound 1 µM
[13] = second compound 0.00949 µM, first compound 0.00316 µM
[14] = second compound 0.00949 µM, first compound 0.01 µM
[15] = second compound 0.00949 µM, first compound 0.0316 µM
[16] = second compound 0.00949 µM, first compound 0.1 µM
[17] = second compound 0.00949 µM, first compound 0.316 µM
[18] = second compound 0.00949 µM, first compound 1 µM
[19] = second compound 0.03 µM, first compound 0.00316 µM
[20] = second compound 0.03 µM, first compound 0.01 µM
[21] = second compound 0.03 µM, first compound 0.0316 µM
[22] = second compound 0.03 µM, first compound 0.1 µM
[23] = second compound 0.03 µM, first compound 0.316 µM
[24] = second compound 0.03 µM, first compound 1 µM
[25] = second compound 0.0949 µM, first compound 0.00316 µM
[26] = second compound 0.0949 µM, first compound 0.01 µM
[27] = second compound 0.0949 µM, first compound 0.0316 µM
[28] = second compound 0.0949 µM, first compound 0.1 µM
[29] = second compound 0.0949 µM, first compound 0.316 µM
[30] = second compound 0.0949 µM, first compound 1 µM
[31] = second compound 0.3 µM, first compound 0.00316 µM
[32] = second compound 0.3 µM, first compound 0.01 µM
[33] = second compound 0.3 µM, first compound 0.0316 µM
[34] = second compound 0.3 µM, first compound 0.1 µM
[35] = second compound 0.3 µM, first compound 0.316 µM
[36] = second compound 0.3 µM, first compound 1 µM

`C=CC(=O)N1CCN(c2nc(OCC3CCCN3C)nc3c(F)c(-c4nc(N)cc(C)c4C(F)(F)F)c(Cl)cc23)C(C)C1` (stereo unspecified) + CCn1c(-c2cc(N3CCN(C)CC3)cnc2C(C)OC)c2c3cc(ccc31)-c1csc(n1)CC(NC(=O)C1CC1C)C(=O)N1CCCC(N1)C(=O)OCC(C)(C)C2 showed an IC50 (second compound 0.000949 µM) of under 3.16 nM, an IC50 (second compound 0.003 µM) of under 3.16 nM and an IC50 (second compound 0.00949 µM) of under 3.16 nM. For the same molecule, the IC50 (second compound 0.03 µM) was under 3.16 nM, the IC50 (second compound 0.0949 µM) was under 3.16 nM and the IC50 (second compound 0.3 µM) was under 3.16 nM. For the same molecule, the viability, T/C [1] was 32.5%, the viability, T/C [2] was 33% and the viability, T/C [3] was 22.8%. For the same molecule, the viability, T/C [4] was 30.2%, the viability, T/C [5] was 28.8% and the viability, T/C [6] was 23.3%. It also gave a viability, T/C [7] of 32.6%, a viability, T/C [8] of 26.3% and a viability, T/C [9] of 23.6%. The viability, T/C [10] was 29.8%, the viability, T/C [11] was 29.5% and the viability, T/C [12] was 27.4%. It also gave a viability, T/C [13] of 31%, a viability, T/C [14] of 25% and a viability, T/C [15] of 28.1%. It also gave a viability, T/C [16] of 28.5%, a viability, T/C [17] of 25.9% and a viability, T/C [18] of 26.9%. The viability, T/C [19] was 26.4%, the viability, T/C [20] was 23% and the viability, T/C [21] was 25%. For the same molecule, the viability, T/C [22] was 21%, the viability, T/C [23] was 16.9% and the viability, T/C [24] was 21.8%. For the same molecule, the viability, T/C [25] was 18.4%, the viability, T/C [26] was 16.8% and the viability, T/C [27] was 16%. The viability, T/C [28] was 14.4%, the viability, T/C [29] was 12.2% and the viability, T/C [30] was 13.8%. The viability, T/C [31] was 17.2%, the viability, T/C [32] was 13.7% and the viability, T/C [33] was 14%. For the same molecule, the viability, T/C [34] was 11.8%, the viability, T/C [35] was 12.9% and the viability, T/C [36] was 11.1%.
With `CC1(C)CCC(Nc2ncc(C(F)(F)F)c(-c3c[nH]c4c(P(C)(C)=O)c(C#N)ccc34)n2)CN1` (stereo unspecified) + CCn1c(-c2cc(N3CCN(C)CC3)cnc2C(C)OC)c2c3cc(ccc31)-c1csc(n1)CC(NC(=O)C1CC1C)C(=O)N1CCCC(N1)C(=O)OCC(C)(C)C2 the IC50 (second compound 0.000949 µM) was under 0.949 nM, the IC50 (second compound 0.003 µM) was under 0.949 nM and the IC50 (second compound 0.00949 µM) was under 0.949 nM. For the same molecule, the IC50 (second compound 0.03 µM) was under 0.949 nM, the IC50 (second compound 0.0949 µM) was under 0.949 nM and the IC50 (second compound 0.3 µM) was under 0.949 nM. For the same molecule, the viability, T/C (second compound 0.000949 µM, first compound 0.000949 µM) was 33.9%, the viability, T/C (second compound 0.000949 µM, first compound 0.003 µM) was 29.4% and the viability, T/C (second compound 0.000949 µM, first compound 0.00949 µM) was 21.1%. For the same molecule, the viability, T/C (second compound 0.000949 µM, first compound 0.03 µM) was 26.6%, the viability, T/C (second compound 0.000949 µM, first compound 0.0949 µM) was 21% and the viability, T/C (second compound 0.000949 µM, first compound 0.3 µM) was 14.5%. For the same molecule, the viability, T/C (second compound 0.003 µM, first compound 0.000949 µM) was 26.6%, the viability, T/C (second compound 0.003 µM, first compound 0.003 µM) was 21.2% and the viability, T/C (second compound 0.003 µM, first compound 0.00949 µM) was 16.8%. It also gave a viability, T/C (second compound 0.003 µM, first compound 0.03 µM) of 18.4%, a viability, T/C (second compound 0.003 µM, first compound 0.0949 µM) of 16.7% and a viability, T/C (second compound 0.003 µM, first compound 0.3 µM) of 12.2%. The viability, T/C (second compound 0.00949 µM, first compound 0.000949 µM) was 21.4%, the viability, T/C (second compound 0.00949 µM, first compound 0.003 µM) was 16.8% and the viability, T/C (second compound 0.00949 µM, first compound 0.00949 µM) was 16.1%. For the same molecule, the viability, T/C (second compound 0.00949 µM, first compound 0.03 µM) was 15.9%, the viability, T/C (second compound 0.00949 µM, first compound 0.0949 µM) was 12.8% and the viability, T/C (second compound 0.00949 µM, first compound 0.3 µM) was 11.8%. For the same molecule, the viability, T/C (second compound 0.03 µM, first compound 0.000949 µM) was 17.6%, the viability, T/C (second compound 0.03 µM, first compound 0.003 µM) was 14.4% and the viability, T/C (second compound 0.03 µM, first compound 0.00949 µM) was 13.4%. For the same molecule, the viability, T/C (second compound 0.03 µM, first compound 0.03 µM) was 12.8%, the viability, T/C (second compound 0.03 µM, first compound 0.0949 µM) was 10.5% and the viability, T/C (second compound 0.03 µM, first compound 0.3 µM) was 12.6%. For the same molecule, the viability, T/C (second compound 0.0949 µM, first compound 0.000949 µM) was 15%, the viability, T/C (second compound 0.0949 µM, first compound 0.003 µM) was 13.5% and the viability, T/C (second compound 0.0949 µM, first compound 0.00949 µM) was 10.5%. For the same molecule, the viability, T/C (second compound 0.0949 µM, first compound 0.03 µM) was 10.9%, the viability, T/C (second compound 0.0949 µM, first compound 0.0949 µM) was 9.11% and the viability, T/C (second compound 0.0949 µM, first compound 0.3 µM) was 10.1%. The viability, T/C (second compound 0.3 µM, first compound 0.000949 µM) was 13.1%, the viability, T/C (second compound 0.3 µM, first compound 0.003 µM) was 10.8% and the viability, T/C (second compound 0.3 µM, first compound 0.00949 µM) was 10.7%. It also gave a viability, T/C (second compound 0.3 µM, first compound 0.03 µM) of 9.9%, a viability, T/C (second compound 0.3 µM, first compound 0.0949 µM) of 9.8% and a viability, T/C (second compound 0.3 µM, first compound 0.3 µM) of 9.04%.
Work on `C=CC(=O)Nc1cc(Nc2nccc(-c3cn(C)c4ccccc34)n2)c(OC)cc1N(C)CCN(C)C` + CCn1c(-c2cccnc2C(C)OC)c2c3cc(ccc31)N1CCOC(CC(NC(=O)C(C(C)C)N(C)C(=O)C3(F)CCN(C(=O)C#CC(C)(C)N(C)C)CC3)C(=O)N3CCCC(N3)C(=O)OCC(C)(C)C2)C1 yielded an IC50 (second compound 0.000949 µM) of under 3.16 nM, an IC50 (second compound 0.003 µM) of 719 nM and an IC50 (second compound 0.00949 µM) of under 3.16 nM. For the same molecule, the IC50 (second compound 0.03 µM) was under 3.16 nM, the IC50 (second compound 0.0949 µM) was under 3.16 nM and the IC50 (second compound 0.3 µM) was under 3.16 nM. The viability, T/C [1] was 38.8%, the viability, T/C [2] was 38.4% and the viability, T/C [3] was 29%. It also gave a viability, T/C [4] of 28.6%, a viability, T/C [5] of 25.8% and a viability, T/C [6] of 20.1%. For the same molecule, the viability, T/C [7] was 99.9%, the viability, T/C [8] was 44.7% and the viability, T/C [9] was 101%. The viability, T/C [10] was 120%, the viability, T/C [11] was 102% and the viability, T/C [12] was 32.5%. The viability, T/C [13] was 35.5%, the viability, T/C [14] was 28.9% and the viability, T/C [15] was 31.1%. The viability, T/C [16] was 30.5%, the viability, T/C [17] was 23.9% and the viability, T/C [18] was 22.2%. For the same molecule, the viability, T/C [19] was 31.2%, the viability, T/C [20] was 26.7% and the viability, T/C [21] was 30.9%. It also gave a viability, T/C [22] of 30.9%, a viability, T/C [23] of 18.3% and a viability, T/C [24] of 23.1%. The viability, T/C [25] was 27.1%, the viability, T/C [26] was 28.6% and the viability, T/C [27] was 31%. The viability, T/C [28] was 26.7%, the viability, T/C [29] was 19.2% and the viability, T/C [30] was 21.6%. The viability, T/C [31] was 25.5%, the viability, T/C [32] was 26.7% and the viability, T/C [33] was 24.6%. For the same molecule, the viability, T/C [34] was 23%, the viability, T/C [35] was 22.9% and the viability, T/C [36] was 21.6%.
